Several values for one entry are separate records, joined by “and”; a condition that tells them apart may be missing. Equal entries are not always repeated. Entries after “also recorded” stand apart in the source; their conditions may differ.
Assays:
[1] = system: punch hole injuries to the liver; settings: pig, in vivo; cited from earlier work
[2] = pH of the supplied solution; format: physicochemical; settings: 2.5% weight/volume solution in water
Source text: Details of the Sheep Study—Endoscopic nasal surgery targeting the turbinates and sinuses has become a cornerstone in managing chronic rhinosinusitis. A sheep model was chosen to test treatment of an endoscopic surgical wound deep in the sinuses with PuraSinus (RADA16-I; (SEQ ID NO:1) 2.5% in water) compared to controls as a model for […] in humans both due to the size of the animals and the suitability of the sheep model for comparison with this kind of surgery in humans as described below. PuraSinus (ARTG: 267486; (SEQ ID NO:1)) was supplied by 3-D Matrix Europe SAS as a 2.5% weight/volume solution of synthetic SAPs in water having a pH of about 2.3. Upon contact with physiologic tissue and/or liquid like blood, the pH and/or ionic strength of PuraSinus (SEQ ID NO:1) increases, triggering the self-assembly of the peptides into nanofibers, forming a beta-sheet network similar to an extracellular matrix. At a macroscopic level, the viscous solution forms a hydrogel that seals the opened vessels resulting in hemostasis. PuraSinus (SEQ ID NO:1) is biocompatible and free from infectious agents and is resorbed over time although some residue may remain for ≥30 days. It is supplied sterile in a syringe and delivered through a nozzle supplied by the manufacturer. It is stored at 2-8° C. […]

[3] = system: nasal mucosal injuries on the middle turbinate and opposing nasal septum; experiment: Endoscopic grading of synechiae/adhesion formation at day 14 and day 42, sheep model; format: in vivo, Merino sheep; design: key to Adhesion score day 14 / Adhesion score day 42: 0: No intranasal adhesions/synechiae; 1: Intranasal adhesion extends less than 25% to septum; Intranasal adhesion extends 25-50% to septum; 3: Intranasal adhesion extends more than 50% to septum; 4: Completely formed adhesion/synechiae extending to septum; settings: for Number of sites, synechiae Grade 0 / Number of sites, synechiae Grade 1 / Number of sites, synechiae Grade 2 / Number of sites, synechiae Grade 3 / Number of sites, synechiae Grade 4: 20 sites per group
Description: Post-operative observations—Post recovery from anesthesia, the animals were returned to their pens with ongoing daily monitoring for 14 days, including bloody nasal discharge, temperature, and food and water intake. On each postoperative day, the animals were examined externally by an independent observer, with no involvement in the operation, for the presence of bloody nasal discharges. External blood was cleaned off after each examination followed with irrigation of each nostril using 20 ml of saline solution. Regular irrigation of the nose and sinuses is standard in post-operative care following nasal surgery. The sheep were sedated and examined via endoscope again on day 14 for the presence of adhesions and graded by an independent observer using the grading scheme below for sheep nasal adhesions. Representative endoscopic images for sites (two sites/sides per sheep) treated with PuraSinus (SEQ ID NO:1) are shown in FIG. 1 and untreated control sites are shown in FIG. 2, respectively. The sheep were euthanized at day 42, with a necropsy performed by the same independent observer grading intranasal adhesion formation and extension. […] [table]

pH [2]: about 2.3
Compound: CC(=O)N[C@@H](CCCNC(=N)N)C(=O)N[C@@H](C)C(=O)N[C@@H](CC(=O)O)C(=O)N[C@@H](C)C(=O)N[C@@H](CCCNC(=N)N)C(=O)N[C@@H](C)C(=O)N[C@@H](CC(=O)O)C(=O)N[C@@H](C)C(=O)N[C@@H](CCCNC(=N)N)C(=O)N[C@@H](C)C(=O)N[C@@H](CC(=O)O)C(=O)N[C@@H](C)C(=O)N[C@@H](CCCNC(=N)N)C(=O)N[C@@H](C)C(=O)N[C@@H](CC(=O)O)C(=O)N[C@@H](C)C(N)=O [PuraSinus, Ac-RADARADARADARADA-NH2]
Inflammatory cell infiltration due to the gel in the wound [1]: absence if inflammatory cell infiltration | Reduction of two-week synechiae score versus Controls ([3]; 2 weeks): 91% | Reduction of two-week synechiae score versus Gelatin-thrombin treatment ([3]; 2 weeks): 92% | Reduction of six-week synechiae score ([3]; 6 weeks): 100% | Sites in which synechiae occurred ([3]; at 2 weeks): 20% | Sites in which synechiae occurred ([3]; at 6 weeks): 0% | Adhesion score day 42 ([3]; individual site, grade 0-4): 0 | Adhesion score day 14 ([3]; individual site, grade 0-4, listed as P): 0 (16×) and 1 (Intranasal adhesion extends less than 25% to septum) (3×) and 2 (Intranasal adhesion extends 25-50% to septum) | Two-week synechiae score ([3]; maximum 4 points, mean±SD): 0.3±0.6 points | Synechiae formation compared to FLOSEAL and untreated control ([3]; sheep, result in words): lowest observed synechiae formation; also recorded: more effective in inhibiting the formation of synechiae; also recorded: statistically significant lower incidence of adhesions; also recorded: significantly reduced synechiae formation | Number of sites, synechiae Grade 0 ([3]; six weeks post-surgery): 20 | Number of sites, synechiae Grade 1 ([3]; six weeks post-surgery): 0 | Number of sites, synechiae Grade 2 ([3]; six weeks post-surgery): 0 | Number of sites, synechiae Grade 3 ([3]; six weeks post-surgery): 0 | Number of sites, synechiae Grade 4 ([3]; six weeks post-surgery): 0 | Number of sites, synechiae Grade 0 ([3]; two weeks post-surgery): 16 | Number of sites, synechiae Grade 1 ([3]; two weeks post-surgery): 3 | Number of sites, synechiae Grade 2 ([3]; two weeks post-surgery): 1 | Number of sites, synechiae Grade 3 ([3]; two weeks post-surgery): 0 | Number of sites, synechiae Grade 4 ([3]; two weeks post-surgery): 0

Reference: patent US20230365625A1, “METHODS FOR TREATING AND/OR PREVENTING UNDESIRABLE SEQULAE OF NASAL TURBINOPLASTY OR FUNCTIONAL ENDOSCOPIC SINUS SURGERY” (3-D Matrix, Ltd., priority 2022, published 2023)
